Data on 3 compounds can be found in ChEMBL document CHEMBL3259709, “Quinoline Derivatives as 5-HT6 Receptor PET Ligands” (ACS Med Chem Lett, 2014).

By Ki is commonly meant the equilibrium dissociation constant of an inhibitor or competing ligand from its target.

The structures appear in SMILES notation.

A short description of data set [1]: Plasma concentration in rat at 0.05 mg/kg, iv after 3 mins. Further details: dose 0.05 mg/kg, route intravenous. It counts as ADME, organism-based.
A short description of data set [2]: Plasma concentration in rat at 0.05 mg/kg, iv after 5 mins. It counts as ADME, organism-based. Further details: dose 0.05 mg/kg, route intravenous.
Data set [3] is described as follows: Ratio of free drug level from brain to plasma concentration in rat at 0.05 mg/kg, iv after 3 mins. The class given is ADME, organism-based. Set-up: dose 0.05 mg/kg, route intravenous. As to conditions: read-out: BPR.
A short description of data set [4]: Ratio of free drug level from brain to plasma concentration in rat at 0.05 mg/kg, iv after 5 mins. The settings on record: read-out: BPR. It counts as ADME, organism-based. Further details: dose 0.05 mg/kg, route intravenous.
The subject of data set [5] is Nucleic Acid. Briefly: Ratio of drug level from striatum to cerebellum in rat brain at 0.05 mg/kg, iv after 5 mins. The class given is ADME, organism-based. As to conditions: in vivo. Set-up: dose 0.05 mg/kg, route intravenous.
The test system of data set [6] is Nucleic Acid. The data set can be described thus: Ratio of drug level from striatum to cerebellum in rat brain at 0.05 mg/kg, iv after 40 mins. The class given is ADME, organism-based. Further details: dose 0.05 mg/kg, route intravenous. The settings on record: in vivo.
Data set [7] concerns Nucleic Acid. The data set can be described thus: Ratio of drug level from hippocampus to cerebellum in rat at 0.05 mg/kg, iv after 5 mins. Set-up: dose 0.05 mg/kg, route intravenous. As to conditions: in vivo. The class given is ADME, organism-based.
The test system of data set [8] is Nucleic Acid. Briefly: Ratio of drug level from hippocampus to cerebellum in rat at 0.05 mg/kg, iv after 40 mins. The class given is ADME, organism-based. As to conditions: in vivo. Further details: dose 0.05 mg/kg, route intravenous.
Data set [9] relates to Nucleic Acid. The data set can be described thus: Ratio of drug level from cortex to cerebellum in rat at 0.05 mg/kg, iv after 5 mins. The class given is ADME, organism-based. Further details: dose 0.05 mg/kg, route intravenous. As to conditions: in vivo.
The test system of data set [10] is Nucleic Acid. The data set can be described thus: Ratio of drug level from cortex to cerebellum in rat at 0.05 mg/kg, iv after 40 mins. It counts as ADME, organism-based. Further details: dose 0.05 mg/kg, route intravenous. The settings on record: in vivo.
Data set [11] addresses 5-hydroxytryptamine receptor 2A (Homo sapiens, UniProt P28223). Briefly: Displacement of [125I]-R-O-DOI from human 5-HT2A receptor expressed in CHO-K1 cells by liquid scintillation spectrometry. The class given is cell-based.

Chain of 5-hydroxytryptamine receptor 2A (P28223 whole entry): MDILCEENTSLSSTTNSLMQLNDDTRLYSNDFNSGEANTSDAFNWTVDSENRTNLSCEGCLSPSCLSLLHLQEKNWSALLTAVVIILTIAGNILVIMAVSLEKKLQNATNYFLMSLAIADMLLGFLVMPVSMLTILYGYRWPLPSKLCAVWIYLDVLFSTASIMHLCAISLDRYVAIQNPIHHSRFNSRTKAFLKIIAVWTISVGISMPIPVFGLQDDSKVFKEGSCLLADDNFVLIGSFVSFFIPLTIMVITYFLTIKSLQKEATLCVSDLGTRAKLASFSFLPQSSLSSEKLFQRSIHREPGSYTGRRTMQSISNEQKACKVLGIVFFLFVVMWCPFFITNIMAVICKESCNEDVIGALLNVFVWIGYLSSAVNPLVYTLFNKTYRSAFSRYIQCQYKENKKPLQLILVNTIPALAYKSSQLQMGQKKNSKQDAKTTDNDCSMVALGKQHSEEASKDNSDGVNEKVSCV

Turning to `CN1CCC(c2cccc3cc(S(=O)(=O)c4ccccn4)cnc23)CC1`, the concentration at 0.05 h in [1] stood at 104 ng/mL. In addition, the concentration at 5 min in [2] amounted to 83.5 ng/mL. For the same compound, the Kp uu at 0.05 h in data set [3] was determined as 0.21. The Kp uu at 5 min in data set [4] is 0.28.
As for `[3H]C([3H])([3H])N1CCC(c2cccc3cc(S(=O)(=O)c4ccccn4)cnc23)CC1`, the Ratio with Nucleic Acid [5] is 0.81; with Nucleic Acid [6], 1.31; in the data set on Nucleic Acid [7], 1.06; in the data set with Nucleic Acid [8], 1.07; in the data set with Nucleic Acid [9], 0.9; in the data set on Nucleic Acid [10], 1.2.
`CN1CCN(c2cccc3cc(S(=O)(=O)c4cccc(F)c4)cnc23)CC1`: the affinity in [11], expressed as Ki, was 0.39 nM.
